Experimental data reported in patent publication US20260327264A1, “PEPTIDE INHIBITORS OF INTERLEUKIN-23 RECEPTOR” (Zealand Pharma A/S, priority 2023, published 2026).
Like-named read-outs stand apart in the source and are kept apart here. *1 amine or outer side, *2 acyl side, *3 side chain or, on linkers, in order; H or OH if unused. Where a SMILES comes first, the peptide text is derived from it. Bridges are numbered along the chain shown (N, C = ends). [ ]: non-standard residue; d: D form. The star is where a group is joined. 2Nal = N[C@@H](Cc1ccc2ccccc2c1)C(=O)O; AEF = NCCOc1ccc(C[C@H](N)C(=O)O)cc1; X1 = O=C(Cc1ccc(CN[*:1])cc1)[*:2]; 3Pal = N[C@@H](Cc1cccnc1)C(=O)O; αMeL = CC(C)C[C@](C)(N)C(=O)O; CH2COCH2 = O=C(C[*:1])C[*:2]; 3Amb = NCc1cccc(C(=O)O)c1; NMeS = CN[C@@H](CO)C(=O)O; Pyrrolidide = C1CCN(*)C1; Dab = NCC[C@H](N)C(=O)O

What was measured:
human IL-23R = target: T1, human IL-23R (Homo sapiens, UniProt Q5VWK5); experiment: Binding assay: displacement of fluorophore (TAMRA)-labelled reference compound from human IL-23R (BRET, Nluc-IL23R fusion protein membranes); details: for Emax: read-out: % displacement (hIL-23R binding)
T1 construct: Nanoluc luciferase (Nluc); secretion signal encoded by the plasmid (not specified); expressed in transfected cells; crude membranes used in the assay
T1 sequence (Q5VWK5 22-629): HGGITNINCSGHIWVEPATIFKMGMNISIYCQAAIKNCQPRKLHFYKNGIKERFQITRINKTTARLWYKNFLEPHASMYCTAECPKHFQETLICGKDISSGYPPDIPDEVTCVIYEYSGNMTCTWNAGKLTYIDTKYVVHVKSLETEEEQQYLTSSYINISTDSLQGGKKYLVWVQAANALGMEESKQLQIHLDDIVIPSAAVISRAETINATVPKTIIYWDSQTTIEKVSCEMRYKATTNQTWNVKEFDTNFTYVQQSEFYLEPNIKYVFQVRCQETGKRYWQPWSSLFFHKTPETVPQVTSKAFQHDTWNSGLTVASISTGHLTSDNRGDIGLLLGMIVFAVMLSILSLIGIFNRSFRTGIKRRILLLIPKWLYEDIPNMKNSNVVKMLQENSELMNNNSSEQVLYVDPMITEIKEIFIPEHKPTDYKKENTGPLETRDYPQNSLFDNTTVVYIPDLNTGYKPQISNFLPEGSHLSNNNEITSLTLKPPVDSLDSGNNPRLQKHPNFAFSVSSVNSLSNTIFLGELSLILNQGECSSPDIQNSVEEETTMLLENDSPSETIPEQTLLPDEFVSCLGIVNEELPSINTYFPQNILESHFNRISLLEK

[1] = tested on: IL-23 mediated STAT3 signalling (DB cells); experiment: Functional inhibition of IL-23 mediated STAT3 signalling (phospho-STAT3 Tyr705) in DB cells; format: cell-based, human; details: for hIL-23 (pSTAT3) antagonist % inhibition: Table 3-2, maximal inhibitory response, EC80 of hIL-23
Excerpt: Upon binding of IL-23, the IL-23R forms a heterodimer signalling complex together with IL-12R β1, which through the JAK2/STAT3 pathway promotes phosphorylation of STAT3 to form phospho-STAT3.
For compounds tested in this assay, the response was normalized relative to control values to calculate the IC50 and maximal inhibitory response from a concentration response curve of the compound in presence of a fixed concentration of human IL-23.
The assay procedure was as follows. […] Following preincubation of the DB cells with inhibitor for 15 min in a cell incubator (37° C., 5% CO2), 20 μL of the prepared 3× the EC80 of hIL-23 solution was added to each well and incubated for 90 min in a cell incubator (37° C., 5% CO2). For some wells buffer only or IL-23 only corresponding to the EC80 was added to obtain readouts needed for normalization. To terminate the assay, the plate was spun at 1000 G for 5 min to pellet cells, the supernatant removed using an 8-channel manual pipette, and then added 50 μL/well Complete Lysis Buffer from the MSD STAT3 kit (Cat #K150SVD, Mesoscale) to the cell pellet. To completely lyse cells to release phospho-STAT3 for detection, the plate was shaken for 10 min at room temperature (500 rpm) sealed with aluminium foil and placed at −80° C. for a minimum of 15 min. Detection of the phospho-STAT3 level in the cell lysate from the individual wells was determined using the MSD STAT3 kit (Cat #K150SVD, Mesoscale) and read on a Meso QuickPlex SQ 120 plate reader (Mesoscale).
For data analysis raw data counts from the Meso QuickPlex SQ 120 plate reader were normalized relative to the response by the EC80 of hIL-23 alone (no compound added) and the buffer level.

[2] = Table 3-2, EC80 of hIL-23, read-out: hIL-23 (pSTAT3) antagonist IC50

## CC(C)C[C@]1(C)NC(=O)[C@H](Cc2ccc3ccccc3c2)NC(=O)[C@H](Cc2ccc(OCCN)cc2)NC(=O)[C@@H]2CCNC(=O)CC[C@H](NC(=O)[C@H](CO)NC(=O)Cc3ccc(cc3)CNC(=O)CC[C@@H](C(=O)N[C@@H](CCN)C(N)=O)NC1=O)C(=O)N[C@@H](Cc1c[nH]c3ccccc13)C(=O)N[C@@H](CCC(=O)N1CCCC1)C(=O)N2 [Ref 146, [4-Aminomethyl-phenylacetyl](1c)*SE(2c)W[Q(pyrrolidin)][Dab](2c)[Y(2-aminoethoxy)][2-Nal][2-Me-Leu]E(1c)[Dab]-[NH2], reference compound] ([X1]SEWE(Pyrrolidide)[Dab][AEF][2Nal][αMeL]E[Dab]-NH2; lactam 3-6, N-10)
Human IL-23R
  IC50: 1.2 nM
  Emax: 105%
[1]; [2]
  IC50: 42 nM
[1]
  hIL-23 (pSTAT3) antagonist % inhibition: 98%

## CC(=O)N[C@H]1CCCCNC(=O)CC[C@@H](C(=O)N[C@@H](CCCNC(=N)N)C(N)=O)NC(=O)[C@H](CC(C)C)NC(=O)[C@H](Cc2ccc3ccccc3c2)NC(=O)[C@H](Cc2c[nH]c3ccccc23)NC(=O)[C@@H]2CSCC(=O)CSC[C@H](NC(=O)[C@H](CO)NC1=O)C(=O)N[C@@H](Cc1c[nH]c3ccccc13)C(=O)N[C@@H](CCC(N)=O)C(=O)N2 [Ref 18, [Ac]-K(1c)SC(2a)WQC(2a)W[2-Nal]LE(1c)R-[NH2], reference compound] (HELM PEPTIDE1{[ac].K.S.C.W.Q.C.W.[O=C([C@H](Cc1ccc2ccccc2c1)N[*:1])[*:2]].L.E.R.[am]}|CHEM1{[O=C(C[*:1])C[*:2]]}$PEPTIDE1,PEPTIDE1,2:R3-11:R3|PEPTIDE1,CHEM1,4:R3-1:R1|PEPTIDE1,CHEM1,7:R3-1:R2$$$V2.0)
Human IL-23R
  Emax: 103%
[1]; [2]
  IC50: 18 nM
[1]
  hIL-23 (pSTAT3) antagonist % inhibition: 97%

## CNC(=O)[C@H](Cc1cccnc1)NC(=O)[C@H](CCN)NC(=O)[C@@H]1CCC(=O)NCc2ccc(cc2)CC(=O)N[C@@H](CO)C(=O)N[C@H]2CCC(=O)NCC[C@H](NC(=O)[C@H](Cc3ccccc3)NC(=O)[C@H](Cc3c[nH]c4ccccc34)NC2=O)C(=O)N[C@@H](Cc2ccc(OCCN)cc2)C(=O)N[C@@H](Cc2ccc3ccccc3c2)C(=O)N[C@@](C)(CC(C)C)C(=O)N1 [Compound 23, [4-Aminomethyl-phenylacetyl](1c)*SE(2c)WF[Dab](2c)[Y(2-aminoethoxy)][2-Nal][2-Me-Leu]E(1c)[Dab][3-(3-Pyridyl)-Ala]-[NHMe]] ([X1]SEWF[Dab][AEF][2Nal][αMeL]E[Dab][3Pal]-NHMe; lactam 3-6, N-10)
Human IL-23R
  IC50: 0.12 nM
  Emax: 97%
[1]; [2]
  IC50: 5.2 nM
[1]
  hIL-23 (pSTAT3) antagonist % inhibition: 99%

## CC(C)C[C@]1(C)NC(=O)[C@H](Cc2ccc3ccccc3c2)NC(=O)[C@H](Cc2ccc(OCCN)cc2)NC(=O)[C@@H]2CCNC(=O)CC[C@H](NC(=O)[C@H](CO)NC(=O)Cc3ccc(cc3)CNC(=O)CC[C@@H](C(=O)N[C@@H](CCN)C(N)=O)NC1=O)C(=O)N[C@@H](Cc1c[nH]c3ccccc13)C(=O)N[C@@H](CCC(N)=O)C(=O)N2 [Ref 125, [4-Aminomethyl-phenylacetyl](1c)*SE(2c)WQ[Dab](2c)[Y(2-aminoethoxy)][2-Nal][2-Me-Leu]E(1c)[Dab]-[NH2], reference compound]
Human IL-23R
  Emax: 101%
[1]; [2]
  IC50: 21 nM
[1]
  hIL-23 (pSTAT3) antagonist % inhibition: 98%

## CC(C)C[C@]1(C)NC(=O)[C@H](Cc2ccc3ccccc3c2)NC(=O)[C@H](Cc2ccc(OCCN)cc2)NC(=O)[C@@H]2CSCC(=O)CSC[C@H](NC(=O)[C@H](CO)NC(=O)Cc3ccc(cc3)CNC(=O)CC[C@@H](C(=O)N[C@@H](CCN)C(=O)N[C@@H](Cc3cccnc3)C(N)=O)NC1=O)C(=O)N[C@@H](Cc1c[nH]c3ccccc13)C(=O)N[C@@H](CCC(N)=O)C(=O)N2 [Ref 120, [4-Aminomethyl-phenylacetyl](1c)*SC(2a)WQC(2a)[Y(2-aminoethoxy)][2-Nal][2-Me-Leu]E(1c)[Dab][3-(3-Pyridyl)-Ala]-[NH2], reference compound] ([X1]SCWQC[AEF][2Nal][αMeL]E[Dab][3Pal]-NH2; linker 3-6 via CH2COCH2; lactam N-10)
Human IL-23R
  Emax: 94%
[1]
  hIL-23 (pSTAT3) antagonist % inhibition: 101%

## CC(C)C[C@@H]1NC(=O)[C@H](Cc2ccc3ccccc3c2)NC(=O)[C@H](Cc2c[nH]c3ccccc23)NC(=O)[C@@H]2CSCC(=O)CSC[C@H](NC(=O)[C@H](CO)NC(=O)c3cccc(c3)CNC(=O)CC[C@@H](C(=O)N[C@@H](CCCNC(=N)N)C(N)=O)NC1=O)C(=O)N[C@@H](Cc1c[nH]c3ccccc13)C(=O)N[C@@H](CCC(N)=O)C(=O)N2 [Ref 37, [(3-Aminomethyl)benzoyl](1c)*SC(2a)WQC(2a)W[2-Nal]LE(1c)R-[NH2], reference compound] ([3Amb]SCWQCW[2Nal]LER-NH2; linker 3-6 via CH2COCH2; lactam N-10)
Human IL-23R
  Emax: 103%
[1]; [2]
  IC50: 45 nM
[1]
  hIL-23 (pSTAT3) antagonist % inhibition: 89%

## CC(C)C[C@]1(C)NC(=O)[C@H](Cc2ccc3ccccc3c2)NC(=O)[C@H](Cc2ccc(OCCN)cc2)NC(=O)[C@@H]2CCNC(=O)CC[C@H](NC(=O)[C@H](CO)NC(=O)Cc3ccc(cc3)CNC(=O)CC[C@@H](C(=O)N[C@@H](CCN)C(=O)N[C@@H](Cc3cccnc3)C(=O)N[C@H](Cc3c[nH]cn3)C(N)=O)NC1=O)C(=O)N[C@@H](Cc1c[nH]c3ccccc13)C(=O)N[C@@H](CCC(N)=O)C(=O)N2 [Compound 10, [4-Aminomethyl-phenylacetyl](1c)*SE(2c)WQ[Dab](2c)[Y(2-aminoethoxy)][2-Nal][2-Me-Leu]E(1c)[Dab][3-(3-Pyridyl)-Ala][{d}H]-[NH2]] ([X1]SEWQ[Dab][AEF][2Nal][αMeL]E[Dab][3Pal][dH]-NH2; lactam 3-6, N-10)
Human IL-23R
  Emax: 91%
[1]; EC80 of hIL-23, read-out: IC50 (pSTAT3)
  IC50: 0.038 nM
[1]; [2]
  IC50: 0.038 nM
[1]
  hIL-23 (pSTAT3) antagonist % inhibition: 99%

## CC(C)C[C@]1(C)NC(=O)[C@H](Cc2ccc3ccccc3c2)NC(=O)[C@H](Cc2ccc(OCCN)cc2)NC(=O)[C@@H]2CSCC(=O)CSC[C@H](NC(=O)[C@H](CO)N(C)C(=O)Cc3ccc(cc3)CNC(=O)CC[C@@H](C(=O)N[C@@H](CCN)C(N)=O)NC1=O)C(=O)N[C@@H](Cc1c[nH]c3ccccc13)C(=O)N[C@@H](CCC(N)=O)C(=O)N2 [Ref 141, [4-Aminomethyl-phenylacetyl](1c)*[N—Me-Ser]C(2a)WQC(2a)[Y(2-aminoethoxy)][2-Nal][2-Me-Leu]E(1c)[Dab]-[NH2], reference compound] ([X1][NMeS]CWQC[AEF][2Nal][αMeL]E[Dab]-NH2; linker 3-6 via CH2COCH2; lactam N-10)
Human IL-23R
  Emax: 102%

## CNC(=O)[C@H](Cc1cccnc1)NC(=O)[C@H](CCN)NC(=O)[C@@H]1CCC(=O)NCc2ccc(cc2)CC(=O)N[C@@H](C)C(=O)N[C@H]2CCC(=O)NCC[C@H](NC(=O)[C@H](CCC(N)=O)NC(=O)[C@H](Cc3c[nH]c4ccccc34)NC2=O)C(=O)N[C@@H](Cc2ccc(OCCN)cc2)C(=O)N[C@@H](CC2CC2)C(=O)NC(C)(C)C(=O)N1 [Compound 42, [4-Aminomethyl-phenylacetyl](1c)*AE(2c)WQ[Dab](2c)[Y(2-aminoethoxy)][Cyclopropyl-Ala][Aib]E(1c)[Dab][3-(3-Pyridyl)-Ala]-[NHMe]]
Human IL-23R
  IC50: 12 nM
  Emax: 100%

## CNC(=O)[C@H](Cc1cccnc1)NC(=O)[C@H](CCN)NC(=O)[C@@H]1CCC(=O)NCc2ccc(cc2)CC(=O)N[C@@H](C)C(=O)N[C@H]2CCC(=O)NCC[C@H](NC(=O)[C@H](CCC(N)=O)NC(=O)[C@H](Cc3c[nH]c4ccccc34)NC2=O)C(=O)N[C@@H](Cc2c[nH]c3ccccc23)CC(=O)N[C@@H](Cc2ccc3ccccc3c2)C(=O)NC(C)(C)C(=O)N1 [Compound 45, [4-Aminomethyl-phenylacetyl](1c)*AE(2c)WQ[Dab](2c)[beta-hTrp][2-Nal][Aib]E(1c)[Dab][3-(3-Pyridyl)-Ala]-[NHMe]]
Human IL-23R
  Emax: 104%
